Measured values: paper PMC11468294, “Peptide Amphiphiles as Biodegradable Adjuvants for Efficient Retroviral Gene Delivery” (Advanced Healthcare Materials, 2023)
Entries after “also recorded” stand apart in the source; their conditions may differ. Where a SMILES comes first, the peptide text is derived from it. The star is where a group is joined. Palmitoyl = CCCCCCCCCCCCCCCC(=O)*

Key:
[1] = tested on: GALV-RV transduction of CD4+ T cells; experiment: γ-Retroviral transduction assay of CD4+ T cells; assay type: cell-based, Human; conditions: GALV-RV, 0.26, 1.3, 6.5 µM; GFP+ cells after 3 days; performed once
Procedure: γ‐Retroviral transduction Assay CD4+ T cells: Human CD4+ T cells were isolated from a Buffy coat using RosetteSep Human CD4+ Enrichment Cocktail ([…] Technologies) according to manufacturer's protocol. Isolated T cells were activated using Dynabeads Human T‐Activator CD3/CD28 (GibcoTM) according to manufacturer's protocol in presence of 10 ng mL^−1 IL‐2 (Miltenyi Biotec) for three days. After 3 days the magnetic Dynabeads were removed using a magnet and T cells were cultured in presence of 9 ng mL^−1 IL‐7 (Miltenyi Biotec) and 10 ng mL^−1 IL‐15 (Miltenyi Biotec). After 1 day 5 × 10^5 T cells were transduced with GALV‐γ‐RV in absence and presence of PA1, PA2, EF‐C (0.26, 1.3 and 6.5 µM) and Vectofusin−1 (10 µg mL^−1; Miltenyi Biotec), or RetroNectin (20 µg mL^−1; Takara Bio). The concentration of the transduction enhancers corresponds to the concentration on cells and in the case for RetroNectin it corresponds to the concentration that was used to precoat the 24‐well plate. The 24‐well plate was coated with RetroNectin and incubated overnight at 4°C. Wells were blocked with PBS containing 2% BSA for 30 min and washed twice with PBS. […] After 3 days GFP+ T cells were analyzed by flow cytometry. Viability was determined using LIVE/DEAD Fixable Aqua Dead Cell Stain Kit (ThermoFisher Scientific) according to manufacturer's protocol. […]

[2] = Microscopic aggregation (fluorescence / confocal microscopy, derived count rate); assay type: physicochemical; conditions: for formation of µm-sized aggregates (in words): fibrils preformed at 1 mg mL-1 in PBS, ThT or Proteostat stain, widefield or confocal microscopy, derived count rate > 1000 kcps as criterion; for assembly in water (fluorescence microscopy): incubated 1 d in pure MilliQ water, ThT stain

Compound | transduction efficacy in primary CD4+ T cells (in words) [1] | formation of µm-sized aggregates (in words) [2] | assembly in water (fluorescence microscopy) [2]
CCCCCCCCCCCCCCCC(=O)N[C@@H](Cc1ccccc1)C(=O)N[C@@H](CCC(N)=O)C(=O)N[C@@H](Cc1ccccc1)C(=O)N[C@@H](CCCCN)C(=O)N[C@@H](Cc1ccccc1)C(=O)N[C@@H](CCCCN)C(=O)N[C@@H](CS)C(N)=O [PA2] (Palmitoyl-FQFKFKC-NH2) | in the range of commercially available gold‐standard enhancers RetroNectin and Vectofusin‐1 | micrometer‐sized clusters of fibrils were formed; also recorded: high aggregation; also recorded: form µm‐sized aggregates | distinct fibrils
C16-VVVAAAKKK-NH2 [PA1] | in the range of commercially available gold‐standard enhancers RetroNectin and Vectofusin‐1 | micrometer‐sized clusters of fibrils were formed; also recorded: less aggregation; also recorded: form µm‐sized aggregates | distinct fibrils
